For two compounds, IC50 results are on record in patent US20090291941A1, “Tyrosine Kinase Inhibitors” (priority 2005, published 2009).

The target in the test is T1, human c-Met (Homo sapiens, UniProt P08581).
T1 construct: Recombinant GST-tagged cytosolic domains of human c-Met; 6xHis; made in house; host or cells: baculovirus system; Sf9 or Sf21 insect cells
Put plainly: In vitro c-Met kinase assay (homogeneous time-resolved fluorescence tyrosine kinase assay). The test is classed as biochemical. As to conditions: recombinant GST-tagged cytosolic domain of c-Met, 0.2 nM enzyme, 50 μM MgATP, HTRF readout. The source says: Recombinant GST-tagged cytosolic domains of human c-Met and other receptor tyrosine kinases including mouse c-Met, human Ron, KDR, IGFR, EGFR, FGFR, Mer, TrkA and Tie2 are used to determine whether the compounds of the instant invention modulate the enzymatic activities of these kinases.
Soluble recombinant GST-tagged cytosolic domains of c-Met and other receptor tyrosine kinases are expressed in a baculovirus system (Pharmingen) according to a protocol recommended by the manufacturer. The c-DNA encoding each cytosolic domain is subcloned into a baculovirus expression vector (pGcGHLT-A, B or C, Pharmingen) containing an in frame 6× histidine tag and a GST tag. […] The protein concentrations of the fusion proteins are determined using Coomassie Plus Protein Assay (Pierce) with BSA as standard.
The kinase activities of c-Met and other kinases are measured using a modified version of the homogeneous time-resolved tyrosine kinase assay described by Park et al. (1999, Anal. Biochem. 269:94-104).
The procedure for determining the potency of a compound to inhibit c-Met kinase comprises the following steps: • 1. […] Read HTRF signals on a Victor reader (PerkinElmer) in HTRF mode after 60 min. • 6. IC50 is determined by fitting the observed relationship between compound concentration and HTRF signal with a 4-parameter logistic equation. […]
(In TR-FRET formats the signal depends on donor and acceptor labels being close together.)

The structures appear in SMILES notation.

T1 sequence (P08581 956-1390 limits assumed): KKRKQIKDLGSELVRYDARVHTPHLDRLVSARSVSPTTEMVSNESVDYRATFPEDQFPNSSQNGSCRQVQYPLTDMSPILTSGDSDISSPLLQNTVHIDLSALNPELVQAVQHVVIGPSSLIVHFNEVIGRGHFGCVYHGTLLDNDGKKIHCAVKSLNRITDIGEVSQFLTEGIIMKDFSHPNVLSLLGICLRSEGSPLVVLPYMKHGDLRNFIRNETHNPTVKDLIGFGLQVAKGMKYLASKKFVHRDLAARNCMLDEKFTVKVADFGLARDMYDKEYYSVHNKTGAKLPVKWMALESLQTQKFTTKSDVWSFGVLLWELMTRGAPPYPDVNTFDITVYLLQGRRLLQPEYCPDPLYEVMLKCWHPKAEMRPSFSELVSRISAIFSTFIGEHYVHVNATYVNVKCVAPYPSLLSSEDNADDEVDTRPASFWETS

As usually defined, the IC50 is the concentration that inhibits the measured activity by half. Turning to `Nc1ccc2c(c1)NC(=O)c1cc(-c3ccccc3)cnc1C=C2` [Compound 15, 8-amino-3-phenylpyrido[3,2-c][1]benzazocin-5(6H)-one], the IC50 was under 50 µM.
Take `Nc1ccc2c(c1)C(=O)Nc1cc(-c3ccccc3)cnc1C=C2` [Compound 14, 8-amino-3-phenylpyrido[3,2-c][2]benzazocin-6(5H)-one]: the IC50 is under 50 µM.
